# From US20260055138A1, “CARRIER PEPTIDE FRAGMENT AND USE THEREOF” (TOAGOSEI CO., LTD., priority 2022, published 2026)
# Primed or numbered codes have the meaning given here. [ ]: non-standard residue; d: D form. FAM = 5(6)-carboxyfluorescein; FAM″ = C-terminal FAM
# System: HeLa cells
# Test: Evaluation of cell membrane permeability by flow cytometry
# Assay type: cell-based, human
# Details: 10 μM, 20 hours, compared with Example 15
# Method: As the eukaryotic cells, HeLa cells (established cell strain derived from a human cervical cancer cell) were used and the cell membrane permeability of the samples 1 to 15 was analyzed. In Examples 1 to 15, the prepared sample solutions 1 to 15 were used, respectively, and in Example 16, the FAM solution was used.
# The HeLa cell was cultured in 10% fetal bovine serum (FBS)-containing Dulbecco's modified Eagle's medium (DMEM (Cat No. 044-29765, manufactured by FUJIFILM Wako Pure Chemical Corporation)), which is a culture medium.
# The HeLa cell that adhered to a culture plate was cleaned with PBS and then, a 0.25%-trypsin/EDTA solution was added thereto, and incubation was performed for three minutes at 37° C. After the incubation, the aforementioned 10% FBS-containing DMEM was added to deactivate trypsin and then, five-minute centrifugal separation was performed at 150×g to precipitate the cells. After the supernatant generated by the centrifugal separation was removed, the 10% FBS-containing DMEM was added to the precipitate (cell pellet) to prepare a cell suspension of about 2×10^5 cells/mL. The cell suspension was added by 1 mL to a well of a commercially available six-hole (well) plate (manufactured by AGC TECHNO GLASS Co., Ltd.) so as to seed the cell (about 2×10^5 cells/well). In addition, the 2 mM sample solution 1 was diluted with the 10% FBS-containing DMEM to prepare the sample solution 1 in which the concentration of the sample 1 was 20 μM. Then, 1 mL of the 20 μM sample solution 1 was added to the well (that is, so that the concentration of the sample 1 became 10 μM and the DMSO concentration became 0.5% in the culture solution in the well). After that, the cell was incubated for 20 hours at 37° C. under a 5% CO2 condition.
# After the 20-hour incubation, the culture supernatant was removed from the well and the cells in the well were cleaned twice with 1 mL of PBS. Next, 200 μL of the 0.25% trypsin/EDTA solution was added to the well and the incubation was performed for three minutes at 37° C. After the incubation, 400 μL of the 10% FBS-containing DMEM was added to the well to deactivate the trypsin. Subsequently, the cell suspension in the well was transferred to a tube and the cells were collected. After that, 600 μL of PBS was added further to the well to clean the well. Then, PBS in the well was transferred to the tube, so that the cells remaining in the well were collected in the tube. This tube was subjected to five-minute centrifugal separation at 4° C. under a condition of 210×g. After the centrifugal separation, the supernatant was removed and the precipitate (cell pellet) was suspended (cleaned) with 1 mL of PBS, which was followed by the centrifugal separation under the same condition as that described above. After this operation was repeated twice, the supernatant was removed and thus, the cells (cell pellet) cultured in a culture medium containing the sample 1 were obtained.
# Regarding the obtained cells (cell pellet), the cell membrane permeability of the sample 1 was analyzed using a flow cytometer. As the flow cytometer, On-Chip Flowcytometer (manufactured by On-Chip Biotechnologies Co., LTD.) was used.
# For such an analysis, the obtained cell pellet was suspended with 100 μL of on-chip T buffer to prepare a cell suspension for analysis.
# Using the aforementioned flow cytometer, gating based on forward scatter (FSC) and side scatter (SSC) was performed to set a gate about a cell group to be analyzed, and the fluorescence intensity was measured about the cell group in this gate. Note that the analysis was performed so that the cell group contained at least 10000 cells. The fluorescence intensity was measured using a fluorescence detector FL2 of the flow cytometer (optimum detection wavelength around 543 nm) capable of detecting the fluorescence wavelength of FAM. […]
row,Substance,"value of MFI, comparison in words"
1,Ac-KKRTLRKSNRKkR-FAM [Example 12],high in particular

# Same assay, conditions: construct (additive) 10 μM, 0.5% DMSO in culture solution, 20 hours incubation at 37° C., FAM fluorescence, detector FL2
row,Substance,MFI (median fluorescence intensity)
1,"5(6)-carboxyfluorescein [Example 16, reference compound]",10.6
2,Ac-KKRTLRKSNRKKR-FAM [Example 7] (Ac-KKRTLR[dK]SNRKKR-{FAM}),16.9
3,Ac-KKRTLRKSNRKKR-FAM [Example 15] (Ac-KKRTLRKSNRKKR-{FAM″}) [reference compound],13.0
4,Ac-KKRTLRKSNRKKr-FAM (Ac-KKRTLRKSNRKK[dR]-{FAM″}) [Example 13],15.2
5,Ac-KKRTLRKSNRKkR-FAM [Example 12],33.8
6,Ac-KKRTLRKSNRkKR-FAM (Ac-KKRTLRKSNR[dK]KR-{FAM″}) [Example 11],17.4
7,Ac-KKRTLRKSNrKKR-FAM (Ac-KKRTLRKSN[dR]KKR-{FAM″}) [Example 10],15.5
8,Ac-KKRTLRKSnRKKR-FAM (Ac-KKRTLRKS[dN]RKKR-{FAM″}) [Example 9],15.6
9,Ac-KKRTLRKsNRKKR-FAM (Ac-KKRTLRK[dS]NRKKR-{FAM″}) [Example 8],14.3
10,Ac-KKRTLrKSNRKKR-FAM [Example 6],17.5
11,Ac-KKRTlRKSNRKKR-FAM (Ac-KKRT[dL]RKSNRKKR-{FAM″}) [Example 5],16.5
12,Ac-KKRtLRKSNRKKR-FAM (Ac-KKR[dT]LRKSNRKKR-{FAM″}) [Example 4],15.9
13,Ac-KKrTLRKSNRKKR-FAM (Ac-KK[dR]TLRKSNRKKR-{FAM″}) [Example 3],13.9
14,Ac-KkRTLRKSNRKKR-FAM (Ac-K[dK]RTLRKSNRKKR-{FAM″}) [Example 2],14.1
15,Ac-kKRTLRKSNRKKR-FAM (Ac-[dK]KRTLRKSNRKKR-{FAM″}) [Example 1],13.9
16,Ac-kkrtlrksnrkkr-FAM (Ac-[dK][dK][dR][dT][dL][dR][dK][dS][dN][dR][dK][dK][dR]-{FAM″}) [Example 14],16.1
